A word on the IC50: it is the concentration at which inhibition is half-maximal. By inhibition is commonly meant the percentage by which the read-out fell short of the control.

Each structure is given as a SMILES string.

The results in this text go back to patent publication US5025036A, “Catechol carboxylic acids” (Hoffmann-La Roche Inc., priority 1989, dated 1991).

The target in one test is T1, Δ^5 -lipoxygenase from rat basophilic leukemia (RBL-1) cells (Rattus norvegicus, UniProt P12527).
T1 construct: The isolated cytosolic fraction was stored in liquid N2 for up to 8 weeks without loss of 5-LO enzyme activity; endogenous in cells; host or cells: RBL-1 cells (ATCC CRL 1378), 113,000×g supernatant (cytosol)
T1 sequence (P12527 1-673): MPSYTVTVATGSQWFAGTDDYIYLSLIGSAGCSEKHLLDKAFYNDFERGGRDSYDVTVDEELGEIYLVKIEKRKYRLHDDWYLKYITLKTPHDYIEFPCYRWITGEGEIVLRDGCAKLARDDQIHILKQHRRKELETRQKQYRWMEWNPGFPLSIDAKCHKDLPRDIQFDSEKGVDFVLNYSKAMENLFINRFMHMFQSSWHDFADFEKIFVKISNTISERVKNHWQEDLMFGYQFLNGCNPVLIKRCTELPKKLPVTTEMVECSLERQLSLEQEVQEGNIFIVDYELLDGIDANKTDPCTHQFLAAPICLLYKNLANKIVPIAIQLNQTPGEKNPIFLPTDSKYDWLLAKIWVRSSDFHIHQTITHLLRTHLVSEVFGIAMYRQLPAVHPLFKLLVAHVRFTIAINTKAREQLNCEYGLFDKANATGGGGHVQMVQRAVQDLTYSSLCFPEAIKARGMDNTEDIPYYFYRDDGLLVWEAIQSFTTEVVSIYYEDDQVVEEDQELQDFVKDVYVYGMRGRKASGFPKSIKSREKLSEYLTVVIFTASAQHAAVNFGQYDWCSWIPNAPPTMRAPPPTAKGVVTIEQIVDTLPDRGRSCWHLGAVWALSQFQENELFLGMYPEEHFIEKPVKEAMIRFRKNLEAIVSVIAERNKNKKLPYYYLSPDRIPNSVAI
Description: In vitro test for Δ^5-lipoxygenase inhibitors (5-HETE radioimmunoassay). Particulars: RBL-1 5-LO, 5-HETE formation; read-out: Inhib. of Δ^5 Lipoxygenase IC50. The class given is biochemical. The protocol:
RBL-1 cells (CRL 1378) were obtained from the American Type Culture Collection, Rockville, MD. DMEM and glutamine were purchased from Flow Labs, McLean, Va. FBS (Gibco, Grand Island, N.Y.) was heat-inactivated for 1 hour at 56° C. Reagents for protein determinations were obtained from Biorad, Rockville Center, N.Y. Arachidonic acid (approx. 99%), ATP (disodium salt), BHT, dextran (clinical grade), tetrasodium EDTA, gelatin, gentamycin sulfate solution, reduced glutathione, 1 M HEPES buffer, indomethacin, NaCl, reduced NADPH, Trizma 7.2, and Trizma 8.5 were purchased from Sigma Chemical, St. Louis, Mo. CaCL2 dihydrate, Norit A charcoal, and citric acid monohydrate were obtained from Fisher Scientific, Pittsburgh, Pa. […] A synthetic 5-HETE standard was supplied by Dr. M. Rosenberger, Dept. of Medicinal Chemistry, Hoffmann La-Roche, Nutley, N.J.; [see Corey, E. J., and Hashimoto, S. (1981) Tet. […] Approximately 7-9 days after thawing, RBL-1 cells growing in log phase were seeded at a density of 7500 viable cells/ml in a closed 89-liter spinner flask. […] RBL-1 cells were harvested by centrifugation at 4° C. at 1500×g for 10 minutes and were washed 3 times with ice cold 0.05M tris-hCl, pH 7.2, tetrasodium EDTA (buffer 1). The cells were washed last in 0.05M Tris-HCl containing 14 μM indomethacin, 1 mM glutathione, 1.5 mM NaCl, and 1 mM tetrasodium EDTA (buffer 2), resuspended at a density of 5×108'/ml approximately 10 ml) and disrupted manually at 4° C. using a 40 ml Dounce (type A pestle) homogenizer. After 5 minutes of homogenization, 95% cell lysis was confirmed by phase contrast microscopy. The broken cells were diluted 1:2 with buffer 2 and centrifuged at 12,380×g for 10 minutes at 4° C. to pellet cellular debris and granules. The 12,380×g supernatant was centrifuged at 113,000×g for 60 minutes to pellet microsomes. The high-speed supernatant (5.9±0.48 mg/ml protein) was frozen immediately in 1 ml aliquots using a dry ice/acetone bath. The isolated cytosolic fraction was stored in liquid N2 for up to 8 weeks without loss of 5-LO enzyme activity. Compounds were dissolved at 25 mM concentration in DMSO, then diluted to final concentrations using 95% ethanol. For a typical enzyme assay, the partially purified 5-LO preparation was preincubated with drug or vehicle for 10 minutes at 30° C. The assay tubes were then transferred at a 37° C. water bath where they received arachidonic acid (8.25 μM final concentration) to initiate 5-LO activity. […] The samples were immediately cooled on ice and neutralized by dilution with 0.05M Tris-HCl, pH 8.5, which contained 25 mg/1 BHT. A boiled cytosol control was placed at the end of each assay to emasure non-enzymatic oxidation of arachidonic acid. […] Under the assay conditions described, the 5-LO catalyzed the conversion of arachidonic acid to 5-HPETE which, as a consequence of peroxidase activity, was reduced to 5-HETE. A specific radioimmunoassay was employed to quantitate the amount (pmoles) of 5-HETE formed during the enzyme reaction. To prepare the immunogen, Dr. M. Rosenberger (Dept. of Medicinal Chemistry) converted the racemic 5-HETE lactone (Corey, E. J., and Hashimoto, S. (1981) Tet. Letters, 22, 299-302) to its hydrazine derivative. The hydrazide was conjugated to thiolated Keyhole Limpet Hemocyanin (Young, […]., and Rokach, J. (1982) Prostaglandins 23, 603-613) using N-ethyl-maleimide as previously described for LTB4 by (Young, R., N, Zomboni, R. and Rokach, J. 91983) Prostaglandins, 26, 605-613). New Zealand White rabbits received multiple intradermal injections on their backs with […] conjugate emulsified in complete Freund's adjuvant. A schedule of injections reported by Salmon (Salmon, J. A. (1978) Prostaglandins, 15, 383-397) was followed. After the monthly i.p. booster injections, blood was obtained from the marginal ear vein 5-7 days later and assessed for antibody titer. […]
As for `CCCc1c(OCCCCCCc2cccc(O)c2O)ccc(C(C)=O)c1O` [1-[2-hydroxy-4-[6-(2,3-dihydroxyphenyl)hexyloxy]-3-propylphenyl]ethanone], the IC50 came out at 30 nM. On the same count and under the same terms, under `CCCc1c(OCCCCc2cccc(O)c2O)ccc(C(=O)O)c1O` [4-[4-(2,3-dihydroxyphenyl)butoxy]-2-hydroxy-3-propylbenzoic acid] stands 90 nM. Still for that read-out and setting: under `CCCc1c(OCCCCCc2cccc(O)c2O)ccc(C(=O)O)c1O` [4-[5-(2,3-Dihydroxyphenyl)pentyloxy]-2-hydroxy-3-propylbenzoic acid] stands 6 nM; under `CCCc1c(OCCCCCCc2cccc(O)c2O)ccc(C(=O)O)c1O` [4-[6-(2,3-Dihydroxyphenyl)hexyloxy]-2-hydroxy-3-propylbenzoic acid], 20 nM. Take `O=C(O)c1ccc(OCCCCCCc2cccc(O)c2O)cc1O` [4-[6-(2,3-Dihydroxyphenyl)hexyloxy]-2-hydroxybenzoic acid]: the IC50 worked out at 320 nM. Consider `O=C(O)c1ccc(OCCCCCCc2cccc(O)c2O)cc1` [4-[6-(2,3-Dihydroxyphenyl)hexyloxy]benzoic acid], for which the IC50 came out at 170 nM. On the same count and under the same terms, with `CCCc1c(OCCCCCCc2ccc(O)c(O)c2)ccc(C(=O)O)c1O` [4-[6-(3,4-dihydroxyphenyl)hexyloxy]-2-hydroxy-3-propylbenzoic acid] the figure was 5 nM; with `CCCc1c(OCCCCCCc2ccc(C(C)C)c(O)c2O)ccc(C(=O)O)c1O` [4-[6-[2,3-dihydroxy-4-(1-methylethyl)phenyl]hexyloxy]-2-hydroxy-3-propylbenzoic acid], 100 nM; with `CCCc1c(OCCCCCCCc2cccc(O)c2O)ccc(C(=O)O)c1O` [4-[7-(2,3-dihydroxyphenyl)heptyloxy]-2-hydroxy-3-propylbenzoic acid], 5 nM. The same measure, in the same setting: with `CCCc1c(OCCCCCCCCCCc2cccc(O)c2O)ccc(C(=O)O)c1O` [4-[10-(2,3-dihydroxyphenyl)decyloxy]-2-hydroxy-3-propylbenzoic acid] the figure was 20 nM.

Staying with this test, now noted: read-out: Inhib. of Δ^5 Lipoxygenase, % inhibition at 0.01 μM.
Take `CCCc1c(OCCCCc2cccc(O)c2O)ccc(C(C)=O)c1O` [1-[2-Hydroxy-4-[4-(2,3-dihydroxyphenyl)butoxy]-3-propylphenyl]ethanone]: the inhibition at 0.01 µM was 48%.

Staying with this test, now noted: read-out: Inhib. of Δ^5 Lipoxygenase, % inhibition at 0.1 μM.
Take `CCCc1c(OCCCCCCc2ccc(C(C)C)c(O)c2O)ccc(C(C)=O)c1O` [1-[2-hydroxy-4 [6-[2,3 dihydroxy-4-(1-methylethyl)phenyl]hexyloxy]-3 propylphenyl]ethanone]: the inhibition at 0.1 µM was 35%. Consider `CCCc1c(OCCCCCCCCc2cccc(O)c2O)ccc(C(=O)O)c1O` [4-[8-(2,3-dihydroxyphenyl)octyloxy]-2-hydroxy-3-propylbenzoic acid], for which the inhibition at 0.1 µM was 62%. For `CCCc1c(O)c(C(=O)O)cc(Cl)c1OCCCCCCc1cccc(O)c1O` [5-Chloro-2-hydroxy-4-[6-(2,3-dihydroxyphenyl]hexyloxy]-3-propylbenzoic acid], the inhibition at 0.1 µM was found to be 48%.

The test is the same for the next values; noted with them: read-out: Inhib. of Δ^5 Lipoxygenase, % inhibition at 1 μM.
Regarding `CCCc1c(OCCCc2ccc(O)c(O)c2)ccc(C(=O)O)c1O` [4-[3-(3,4-Dihydroxyphenyl)propoxy]-2-hydroxy-3-propylbenzoic acid], the inhibition at 1 µM was determined as 97%. As to `CCCc1c(OCCCCCCc2cccc(O)c2O)ccc(C(=O)OCC)c1O` [4-[6-(2,3-Dihydroxyphenyl)hexyloxy]-2-hydroxy-3-propylbenzoic acid ethyl ester], the inhibition at 1 µM was found to be 100%.
